{"source": "patent US5866684A", "about": "“Peptidyl inhibitors of viral proteases” (Hoffmann-La Roche Inc., priority 1996, dated 1999)", "note": "Numbered stars: 1 amine (or outer) side, 2 acyl side, 3 side chain; on linkers, the order of the positions; unused ones are H or OH. Square brackets hold non-standard residues; d marks the D form. Peptide text beside a SMILES is read from it. X1 = CC(F)(F)C[C@H](N[*:1])C(=O)[*:2]; Phe(2-Me) = Cc1ccccc1C[C@H](N)C(=O)O; Suc = O=C(CCC(=O)[*:2])[*:1]; Tle = CC(C)(C)[C@H](N)C(=O)O"}
{"target": "T1, HCV proteinase (Hepatitis C virus genotype 1b, UniProt P26662)", "T1 construct": "Regions encompassing the NS3 proteinase domain (amino acids 1007-1219); made in house; host or cells: E. coli strain MC1061", "T1 sequence (P26662 1007-1219)": "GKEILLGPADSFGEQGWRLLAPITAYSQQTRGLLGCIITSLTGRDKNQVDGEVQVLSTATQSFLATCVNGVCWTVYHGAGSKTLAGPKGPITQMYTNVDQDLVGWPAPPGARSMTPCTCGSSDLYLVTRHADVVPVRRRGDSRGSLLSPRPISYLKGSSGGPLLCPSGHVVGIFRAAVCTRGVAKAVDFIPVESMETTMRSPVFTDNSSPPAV", "assay": "HCV proteinase inhibition: cleavage of quenched fluorescence substrate NS4A/B.F peptide by enzyme MBP-NS3\"Gly12-NS4A", "format": "biochemical", "conditions": "enzyme MBP-NS3\"Gly12-NS4A 1 μg in 200 μl, pH 8.5, 15 minutes preincubation, NS4A/B.F peptide 10 μM, read after a further 10 minutes", "text": "As mentioned earlier, the compounds of formula I and salts of acidic compounds of formula I with bases are inhibitors of proteases of viral origin.\nThe nucleotide sequence of this expression plasmid is given in FIGS. 1a-j appended hereto and the amino acid sequence of its expression product is given in FIG. 2 appended hereto. It is based on the pMAL®-c2 vector supplied by New England Biolabs, Inc. (32 Tozer Rd., Beverly, Mass., USA). The principle of the construction was to create an in-frame fusion of the maltose binding protein (MBP) gene supplied by the pMAL-c2 vector, and sequences of the HCV genome necessary for NS3 proteinase activity. These HCV sequences were inserted between the EcoRI and HindIII sites of the pMAL-c2 polylinker (positions 2695 and 3556 respectively of the sequence given in FIGS. 1a-j).\nHCV sequences were derived from plasmids pDS 3348-4045 and pBFK 3348-6062, described by Bartenschlager et al, 1993 (Journal of Virology, 67, 3835-3844). Regions encompassing the NS3 proteinase domain (amino acids 1007-1219) and the NS4A domain (amino acids 1658-1711) were isolated and inserted into the pMAL-c2 vector using standard recombinant DNA techniques, including the PCR amplification of required sequences. Between the NS3 and NS4A domains, a linker region was constructed using synthetic oligonucleotides (positions 3343-3390; amino acids 606-621). The resulting plasmid was used to transform E. coli (strain MC1061) cells and expression of the MBP-NS3\"Gly12 -NS4A enzyme was induced as described below.\nE. coli (strain MC1061) cells transformed with the foregoing plasmid were grown in Luria broth containing ampicillin (100 μg/ml) at 37° C. The cells were grown until an optical density of 0.5 at 600 nm had been reached and enzyme expression was then induced by adding 1 mM isopropylthiogalactoside and incubating at 37° C. for a further 3 hours. The cells were harvested by centrifugation and stored at -80° C.\nA pellet from 4 l of bacterial culture was resuspended in E.coli lysis buffer (20 mM Tris HCl, pH 7.5, containing 150 mM NaCl, 1 mM EDTA and 10 mM dithiothreitol) and cell lysis was achieved by two passages through a French Pressure cell. The clear supernatant obtained by centrifugation (18000 g, 30 minutes) was then applied to an amylose resin column (4×1 cm) (New England Biolabs) which had been equilibrated with ice-cold 50 mM Tris HCl, pH 8.5, containing 200 mM NaCl, 1 mM dithiothreitol and 5% glycerol. The column was washed thoroughly with the equilibration buffer and bound protein was eluted using the equilibration buffer containing 10 mM maltose. Fractions of 1 ml were collected, with fractions containing the enzyme being pooled and stored at -80° C. Enzyme concentration was assayed by the method of M. B. Bradford, Analytical Biochemistry, 1976, vol. 72, p.248.\nCompounds of formula I (routinely prepared as stock solutions in DMSO) were assayed for their ability to inhibit the cleavage of a quenched fluorescence substrate [NS4A/B.F peptide (N-[4-[4-(dimethylamino)phenylazo]benzoyl]-L-α-aspartyl-L-α-glutamyl-L-methionyl-L-(x-glutamyl-L-α-glutamyl-L-cysteinyl-L-alanyl-L- seryl-L-histidyl-N5-[2-(5-sulpho-1-naphthylamino)ethyl]-L-glutaminamide); Wilkinson et al, Society for General Microbiology Meeting, University of Warwick, England, 28 Mar. 1996] based on the NS4A/4B cleavage site by enzyme MBP-NS3\"Gly12 -NS4A in microtitre plates as follows:\nThe enzyme (1 μg) was added to 200 μl final volume of a mixture containing 50 mM Tris HCl, pH 8.5, with 1 mM dithiothreitol, 0.1% Triton X-100 and the test compound of formula I. The resulting mixture was incubated at room temperature for 15 minutes prior to starting the reaction by the addition of NS4A/B.F peptide to a final concentration of 10 μM. The progress of the reaction was evaluated with a Perseptive Biosystems Cytofluor II using an excitation wavelenth of 360 nm and an emission wavelength of 530 nm. […]", "units": {"IC50": "nM"}}
{"smiles": "C=CCC(NC(=O)[C@H](CC(C)C)NC(=O)[C@@H](NC(=O)[C@H](Cc1ccccc1C)NC(=O)[C@H](CCC(=O)O)NC(=O)[C@H](CC(=O)O)NC(=O)CCC(=O)O)C(C)(C)C)B(O)O", "note": "(mixture of isomers) [D, 1(RS)-[[N-[N-[N-[N-[N-(3-carboxypropionyl)-L-α-aspartyl]-L-α-glutamyl]-2-methyl-L-phenylalanyl]-3-methyl-L-valyl]-L-leucyl]amino]-3-butenylboronic acid]", "IC50": 34}
{"smiles": "Cc1ccccc1C[C@H](NC(=O)[C@H](CCC(=O)O)NC(=O)[C@H](CC(=O)O)NC(=O)CCC(=O)O)C(=O)N[C@H](C(=O)N[C@@H](CC(C)C)C(=O)N[C@H](C=O)CC(C)(F)F)C(C)(C)C", "note": "[B, 2(S)-[[N-[N-[N-[N-[N-(3-carboxypropionyl)-L-α-aspartyl]-L-α-glutamyl]-2-methyl-L-phenylalanyl]-3-methyl-L-valyl]-L-leucyl]amino]-4,4-difluorovaleraldehyde] (Suc-DE[Phe(2-Me)][Tle]L[X1]-aldehyde)", "IC50": 70}
{"smiles": "CCC(NC(=O)[C@H](CC(C)C)NC(=O)[C@@H](NC(=O)[C@H](Cc1ccccc1C)NC(=O)[C@H](CCC(=O)O)NC(=O)[C@H](CC(=O)O)NC(=O)CCC(=O)O)C(C)(C)C)B(O)O", "note": "(mixture of isomers) [E, 1(RS)-[[N-[N-[N-[N-[N-(3-carboxypropionyl)-L-α-aspartyl]-L-α-glutamyl]-2-methyl-L-phenylalanyl]-3-methyl-L-valyl]-L-leucyl]amino]propylboronic acid]", "IC50": 38}
{"smiles": "C=CCC(C=O)NC(=O)[C@H](CC(C)C)NC(=O)[C@@H](NC(=O)[C@H](Cc1ccccc1C)NC(=O)[C@H](CCC(=O)O)NC(=O)[C@H](CC(=O)O)NC(=O)CCC(=O)O)C(C)(C)C", "note": "(mixture of isomers) [A, 2(RS)-[[N-[N-[N-[N-[N-(3-carboxypropionyl)-L-α-aspartyl]-L-α-glutamyl]-2-methyl-L-phenylalanyl]-3-methyl-L-valyl]-L-leucyl]amino]-4-pentenaldehyde]", "IC50": 90}
{"smiles": "CCCC(NC(=O)[C@H](CC(C)C)NC(=O)[C@@H](NC(=O)[C@H](Cc1ccccc1C)NC(=O)[C@H](CCC(=O)O)NC(=O)[C@H](CC(=O)O)NC(=O)CCC(=O)O)C(C)(C)C)B(O)O", "note": "(mixture of isomers) [F, 1(RS)-[[N-[N-[N-[N-[N-(3-carboxypropionyl)-L-α-aspartyl]-L-α-glutamyl]-2-methyl-L-phenylalanyl]-3-methyl-L-valyl]-L-leucyl]amino]butylboronic acid]", "IC50": 160}
{"smiles": "Cc1ccccc1C[C@H](NC(=O)[C@H](CCC(=O)O)NC(=O)[C@H](CC(=O)O)NC(=O)CCC(=O)O)C(=O)N[C@H](C(=O)N[C@@H](CC(C)C)C(=O)NC(C=O)CC(F)(F)F)C(C)(C)C", "note": "(mixture of isomers) [C, 2(RS)-[[N-[N-[N-[N-[N-(3-carboxypropionyl)-L-α-aspartyl]-L-α-glutamyl]-2-methyl-L-phenylalanyl]-3-methyl-L-valyl]-L-leucyl]amino]-4,4,4-trifluorobutyraldehyde]", "IC50": 64}
